Measured values taken from the supplement of paper PMC10307832.

Legend:
Experiment in all cases: relative viability (nuclei count vs DMSO), 5 days (fraction); higher = more cells survive
[1] = compound: C=CCNC1=C2C[C@@H](C)C[C@H](OC)[C@H](O)[C@@H](C)/C=C(\C)[C@H](OC(N)=O)[C@@H](OC)/C=C\C=C(/C)C(=O)NC(=CC1=O)C2=O [17-AAG] + CCNC(=O)c1noc(-c2cc(C(C)C)c(O)cc2O)c1-c1ccc(CN2CCOCC2)cc1 [Luminespib] (partner 0.01 µM)
Summary of the method: (§1)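 Relative viability was taken as the ratio of nuclei in treated wells to nuclei in vehicle wells. Lung cancer cell lines in 1536-well plates received compounds by pin tool one day after seeding, either one drug alone or a fixed anchor-drug dose plus five library-drug doses (not always all listed) in √10 steps. Nuclei were counted on 4× images after 5 days of treatment, and values are medians of duplicate plates.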

[2] = compound: C=CCNC1=C2C[C@@H](C)C[C@H](OC)[C@H](O)[C@@H](C)/C=C(\C)[C@H](OC(N)=O)[C@@H](OC)/C=C\C=C(/C)C(=O)NC(=CC1=O)C2=O [17-AAG] + Cc1nc(Nc2ncc(C(=O)Nc3c(C)cccc3Cl)s2)cc(N2CCN(CCO)CC2)n1 [Dasatinib] (partner 0.075 µM)
Summary of the method: as §1

[3] = compound: C=CCNC1=C2C[C@@H](C)C[C@H](OC)[C@H](O)[C@@H](C)/C=C(\C)[C@H](OC(N)=O)[C@@H](OC)/C=C\C=C(/C)C(=O)NC(=CC1=O)C2=O [17-AAG] + N=C(N)NC(=N)NCCc1ccccc1 [Phenformin] (partner 250 µM)
Summary of the method: as §1

[4] = compound: C=CCNC1=C2C[C@@H](C)C[C@H](OC)[C@H](O)[C@@H](C)/C=C(\C)[C@H](OC(N)=O)[C@@H](OC)/C=C\C=C(/C)C(=O)NC(=CC1=O)C2=O [17-AAG] + COc1cccc2cc(-c3nc([C@H]4CC[C@H](C(=O)O)CC4)n4ncnc(N)c34)[nH]c12 [OSI-027] (partner 0.5 µM)
Summary of the method: as §1

[5] = compound: C=CCNC1=C2C[C@@H](C)C[C@H](OC)[C@H](O)[C@@H](C)/C=C(\C)[C@H](OC(N)=O)[C@@H](OC)/C=C\C=C(/C)C(=O)NC(=CC1=O)C2=O [17-AAG] + COc1cc2c(Oc3ccc(NC(=O)C4(C(=O)Nc5ccc(F)cc5)CC4)cc3F)ccnc2cc1OCCCN1CCOCC1 [Foretinib] (partner 0.25 µM)
Summary of the method: as §1

[6] = compound: C=CCNC1=C2C[C@@H](C)C[C@H](OC)[C@H](O)[C@@H](C)/C=C(\C)[C@H](OC(N)=O)[C@@H](OC)/C=C\C=C(/C)C(=O)NC(=CC1=O)C2=O [17-AAG] + Cc1cc(Nc2cc(N3CCN(C)CC3)nc(Sc3ccc(NC(=O)C4CC4)cc3)n2)n[nH]1 [Tozasertib] (partner 0.1 µM)
Summary of the method: as §1

[7] = compound: C=CCNC1=C2C[C@@H](C)C[C@H](OC)[C@H](O)[C@@H](C)/C=C(\C)[C@H](OC(N)=O)[C@@H](OC)/C=C\C=C(/C)C(=O)NC(=CC1=O)C2=O [17-AAG]
Summary of the method: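 MetaXpress counted nuclei in 4× images of lung cancer cell lines that had been fixed, permeabilised and Hoechst-stained in one step. Before that, cells in 1536-well plates were kept overnight at 37 °C, pinned with five √10-spaced library-drug doses on vehicle-anchored plates, and cultured 5 days without medium change. Viability takes treated-well nuclei over vehicle-well nuclei and uses the median across plates. Plates were accepted only at control CV below 25% and at least one doubling.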

Cell Line: NCI-H1623
- relative viability ([1]; first compound 0.00128 µM): 0.555
- relative viability ([1]; first compound 0.004048 µM): 0.369
- relative viability ([1]; first compound 0.0128 µM): 0.283
- relative viability ([1]; first compound 0.04048 µM): 0.273
- relative viability ([1]; first compound 0.128 µM): 0.267
- relative viability ([2]; first compound 0.00128 µM): 0.625
- relative viability ([2]; first compound 0.004048 µM): 0.351
- relative viability ([2]; first compound 0.0128 µM): 0.284
- relative viability ([2]; first compound 0.04048 µM): 0.265
- relative viability ([2]; first compound 0.128 µM): 0.284
- relative viability ([3]; first compound 0.00128 µM): 0.614
- relative viability ([3]; first compound 0.004048 µM): 0.369
- relative viability ([3]; first compound 0.0128 µM): 0.323
- relative viability ([3]; first compound 0.04048 µM): 0.268
- relative viability ([3]; first compound 0.128 µM): 0.285
- relative viability ([4]; first compound 0.00128 µM): 0.475
- relative viability ([4]; first compound 0.004048 µM): 0.463
- relative viability ([4]; first compound 0.0128 µM): 0.33
- relative viability ([4]; first compound 0.04048 µM): 0.254
- relative viability ([4]; first compound 0.128 µM): 0.33
- relative viability ([5]; first compound 0.00128 µM): 0.87
- relative viability ([5]; first compound 0.004048 µM): 0.695
- relative viability ([5]; first compound 0.0128 µM): 0.491
- relative viability ([5]; first compound 0.04048 µM): 0.304
- relative viability ([5]; first compound 0.128 µM): 0.336
- relative viability ([6]; first compound 0.00128 µM): 0.412
- relative viability ([6]; first compound 0.004048 µM): 0.401
- relative viability ([6]; first compound 0.0128 µM): 0.497
- relative viability ([6]; first compound 0.04048 µM): 0.261
- relative viability ([6]; first compound 0.128 µM): 0.31
- relative viability ([7]; 0.00128 µM): 0.978
- relative viability ([7]; 0.004048 µM): 0.919
- relative viability ([7]; 0.0128 µM): 0.755
- relative viability ([7]; 0.04048 µM): 0.31
- relative viability ([7]; 0.128 µM): 0.383
